In ChEMBL document CHEMBL4732190, “Identification of Potent and Long-Acting Single-Chain Peptide Mimetics of Human Relaxin-2 for Cardiovascular Diseases” (J Med Chem, 2021):
Values after ≈ are worked out from the molar mass of the structure shown. *1 amine or outer side, *2 acyl side, *3 side chain or, on linkers, in order; H or OH if unused. Where a SMILES comes first, the peptide text is derived from it. [ ]: non-standard residue; d: D form. The star is where a group is joined. X5 = CCCCCCCCCCCCCCCCCCC(=O)[C@H](CCC(=O)O)NC(=O)[C@H](CCC(=O)O)NC(=O)[C@H](CCC(=O)O)NC(=O)[C@H](CCCCN)NC(=O)COCC(=O)NCCCOCCOCCOCCCNC(=O)COCC(=O)NCCCOCCOCCOCCCNC(=O)COCC(=O)NCCCOCCOCCOCCCN*; PEG11 = NCCOCCOCCOCCOCCOCCOCCOCCOCCOCCOCCOCCC(=O)O; X2 = CCCCCCCCCCCCCCCCCC(=O)[C@H](CCC(N)=O)N*; β2hAla(2S) = C[C@@H](CN[*:1])C(=O)[*:2]; hLys = NCCCCC[C@H](N)C(=O)O; Nle = CCCC[C@H](N)C(=O)O; AEEA = NCCOCCOCC(=O)O

Experiments:
[1] = Stability in human plasma assessed as parent compound remaining level at 5 uM remaining after 4 hrs; assay type: ADME, cell-free; details: read-out: Stabilty
[2] = target: T1, Relaxin receptor 1 (Homo sapiens, UniProt Q9HBX9); assay: Agonist activity at RXFP1 endogenously expressed in human OVCAR-5 cells assessed as increase in IBMX-induced cAMP accumulation pretreated with IBMX for 40 mins followed by compound addition and measured after 30 mins by HTRF assay; assay type: functional, cell-based
T1 sequence (Q9HBX9 whole entry): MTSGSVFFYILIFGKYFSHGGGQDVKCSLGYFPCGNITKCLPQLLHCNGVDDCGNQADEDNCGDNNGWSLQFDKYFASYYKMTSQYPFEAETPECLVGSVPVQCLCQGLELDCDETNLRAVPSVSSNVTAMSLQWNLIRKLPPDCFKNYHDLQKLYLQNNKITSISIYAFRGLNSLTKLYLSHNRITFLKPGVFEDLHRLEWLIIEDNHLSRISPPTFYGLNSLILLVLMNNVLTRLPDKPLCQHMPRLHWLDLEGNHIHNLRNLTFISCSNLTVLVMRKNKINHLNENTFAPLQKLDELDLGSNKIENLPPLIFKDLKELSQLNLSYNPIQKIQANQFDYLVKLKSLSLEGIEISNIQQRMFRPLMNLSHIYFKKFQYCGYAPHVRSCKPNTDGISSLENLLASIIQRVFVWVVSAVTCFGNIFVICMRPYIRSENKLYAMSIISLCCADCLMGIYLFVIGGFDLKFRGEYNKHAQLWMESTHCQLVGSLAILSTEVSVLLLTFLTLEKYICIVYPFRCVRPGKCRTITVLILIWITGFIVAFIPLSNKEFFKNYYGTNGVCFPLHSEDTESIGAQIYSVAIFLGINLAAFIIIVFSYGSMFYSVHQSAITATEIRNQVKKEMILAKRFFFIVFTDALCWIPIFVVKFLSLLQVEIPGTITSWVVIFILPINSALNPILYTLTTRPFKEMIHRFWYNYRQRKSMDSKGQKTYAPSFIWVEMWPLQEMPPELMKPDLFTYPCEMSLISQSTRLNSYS

[3] = target: T2, Relaxin receptor 1 (Homo sapiens) (UniProt Q9HBX9); assay: Agonist activity at RXFP1 endogenously expressed in human OVCAR-5 cells assessed as increase in IBMX-induced cAMP accumulation pretreated with IBMX for 40 mins followed by compound addition and measured after 30 mins by HTRF assay relative to relaxin; assay type: functional, cell-based; details: filed as agonist
T2 sequence (whole entry): T1 sequence (Q9HBX9 whole entry)

[4] = Aqueous solubility of compound in phosphate buffer at pH 7.4 measured after 24 hrs by UPLC analysis; assay type: physicochemical
[5] = Stability in rat plasma assessed as parent compound remaining level at 5 uM remaining after 4 hrs; assay type: ADME, cell-free; details: read-out: Stabilty
[6] = Half life in Sprague-Dawley rat at 1 mg/kg, iv measured upto 72 hrs by LC-HRMS analysis; assay type: ADME, organism-based; details: in vivo
[7] = target: T1, Relaxin receptor 1; assay: Agonist activity at RXFP1 endogenously expressed in human OVCAR-5 cells assessed as increase in IBMX-induced cAMP accumulation pretreated with IBMX for 40 mins followed by compound addition and measured after 30 mins in presence of 2 % HSA by HTRF assay; assay type: functional, cell-based
[8] = target: T2, Relaxin receptor 1 (Homo sapiens); assay: Agonist activity at RXFP1 endogenously expressed in human OVCAR-5 cells assessed as increase in IBMX-induced cAMP accumulation pretreated with IBMX for 40 mins followed by compound addition and measured after 30 mins in presence of 2 % HSA by HTRF assay relative to control; assay type: functional, cell-based; details: filed as agonist
[9] = target: T2, Relaxin receptor 1 (Homo sapiens); assay: Selectivity ratio of EC50 for agonist activity at RXFP1 endogenously expressed in human OVCAR-5 cells in presence of 2 % HSA to EC50 for agonist activity at RXFP1 endogenously expressed in human OVCAR-5 cells in absence of HSA; assay type: cell-based
[10] = Positive chronotropic activity in pithed Sprague-Dawley rat assessed as increase in heart rate at 20 to 1000 mg/kg, iv administered as bolus dose measured after 60 mins post dose; assay type: ADME, organism-based; details: in vivo, 1 h, dose 20-1000 mg/kg
[11] = Positive chronotropic activity in pithed Sprague-Dawley rat assessed as increase in heart rate at 1000 mg/kg, iv administered as bolus dose measured after 60 mins post dose; assay type: ADME, organism-based; details: in vivo, 1 h
[12] = Bioavailability in Sprague-Dawley rat at 3 mg/kg, sc measured upto 72 hrs by LC-HRMS analysis; assay type: ADME, organism-based; details: in vivo

SMILES | remaining at 4 h, 5 µM [1] [%] | EC50 [2] [nM] | Emax [3] [%] | solubility at 24 h [4] [mg/mL] | remaining at 4 h, 5 µM [5] [%] | half-life [6] [h] | EC50 [7] [nM] | Emax [8] [%] | Ratio EC50 [9] | Activity [10] | Emin [11] [%] | bioavailability [12] [%]
CCCCCCCCCCCCCCCCCC(=O)[C@H](CCC(N)=O)NC(=O)[C@H](CCC(=O)O)NC(=O)[C@H](CCC(=O)O)NC(=O)[C@H](CCCCN)NC(=O)COCCOCCNC(=O)COCCOCCNC(=O)COCCOCCNC(=O)[C@H](CCCCCNC(C)=O)NC(=O)[C@H](CCCCN)NC(=O)[C@H](CCCCN)NC(=O)[C@H](CCCNC(=N)N)NC(=O)[C@@H](C)CNC(=O)[C@H](CO)NC(=O)[C@H](Cc1c[nH]c2ccccc12)NC(=O)[C@@H](NC(=O)[C@H](CO)NC(=O)[C@H](CCCCCNC(C)=O)NC(=O)[C@H](CCCCN)NC(=O)[C@H](CCCC)NC(=O)[C@H](CCSC)NC(=O)CNC(=O)[C@H](CCC(=O)O)NC(=O)[C@@H](C)CNC(=O)[C@@H](C)CNC(=O)[C@@H](NC(=O)[C@H](CCCCCNC(C)=O)NC(=O)[C@H](CCCCN)NC(=O)[C@H](C)NC(=O)[C@H](CCCNC(=N)N)NC(=O)[C@@H](NC(=O)[C@H](CCCCN)NC(=O)[C@H](CCC(=O)O)NC(=O)[C@H](CCCNC(=N)N)NC(=O)[C@H](CCC(=O)O)NC(=O)CNC(=O)[C@H](CCC(=O)O)NC(=O)[C@H](CC(C)C)NC(C)=O)C(C)C)[C@@H](C)CC)[C@@H](C)O (Ac-LEGEREKVRAK[hLys](Ac)I[β2hAla(2S)][β2hAla(2S)]EGM[Nle]K[hLys](Ac)STWS[β2hAla(2S)]RKK[hLys](Ac)[AEEA][AEEA][AEEA]KEE-X2) | 111 | 0.2 | 89 | 11.4 (≈ 2330 µM) | 114 | 3.9 | 18.4 | 89 | 92 | Dose-dependent effect | 26 | –
CCCCCCCCCCCCCCCCCC(=O)[C@H](CCC(N)=O)NC(=O)[C@H](CCC(=O)O)NC(=O)[C@H](CCC(=O)O)NC(=O)[C@H](CCCCN)NC(=O)CCOCCOCCOCCOCCOCCOCCOCCOCCOCCOCCOCCNC(=O)[C@H](CCCCN)NC(=O)[C@H](CCCNC(=N)N)NC(=O)[C@@H](C)CNC(=O)[C@H](CO)NC(=O)[C@H](Cc1c[nH]c2ccccc12)NC(=O)[C@@H](NC(=O)[C@H](CO)NC(=O)[C@H](CCCC)NC(=O)[C@H](CCSC)NC(=O)CNC(=O)[C@H](CCC(=O)O)NC(=O)[C@@H](C)CNC(=O)[C@@H](C)CNC(=O)[C@@H](NC(=O)[C@H](CCC(N)=O)NC(=O)[C@H](C)NC(=O)[C@H](CCCNC(=N)N)NC(=O)[C@@H](NC(=O)[C@H](CCCCN)NC(=O)[C@H](CCC(=O)O)NC(=O)[C@H](CCCNC(=N)N)NC(=O)[C@H](CCC(=O)O)NC(=O)CNC(=O)[C@H](CCC(=O)O)NC(=O)[C@H](CC(C)C)NC(C)=O)C(C)C)[C@@H](C)CC)[C@@H](C)O (Ac-LEGEREKVRAQI[β2hAla(2S)][β2hAla(2S)]EGM[Nle]STWS[β2hAla(2S)]RK[PEG11]KEE-X2) | – | 1 | 79 | – | – | 4.8 | 31 | 80 | 31 | – | – | 100
CCCCCCCCCCCCCCCCCCC(=O)[C@H](CCC(=O)O)NC(=O)[C@H](CCC(=O)O)NC(=O)[C@H](CCC(=O)O)NC(=O)[C@H](CCCCN)NC(=O)COCC(=O)NCCCOCCOCCOCCCNC(=O)COCC(=O)NCCCOCCOCCOCCCNC(=O)COCC(=O)NCCCOCCOCCOCCCNC(=O)[C@H](CCCCCNC(C)=O)NC(=O)[C@H](CCCCN)NC(=O)[C@H](CCCCN)NC(=O)[C@H](CCCNC(=N)N)NC(=O)[C@@H](C)CNC(=O)[C@H](CO)NC(=O)[C@H](Cc1c[nH]c2ccccc12)NC(=O)[C@@H](NC(=O)[C@H](CO)NC(=O)[C@H](CCCCCNC(C)=O)NC(=O)[C@H](CCCCN)NC(=O)[C@H](CCCC)NC(=O)[C@H](CCSC)NC(=O)CNC(=O)[C@H](CCC(=O)O)NC(=O)[C@@H](C)CNC(=O)[C@@H](C)CNC(=O)[C@@H](NC(=O)[C@H](CCCCCNC(C)=O)NC(=O)[C@H](CCCCN)NC(=O)[C@H](C)NC(=O)[C@H](CCCNC(=N)N)NC(=O)[C@@H](NC(=O)[C@H](CCCCN)NC(=O)[C@H](CCC(=O)O)NC(=O)[C@H](CCCNC(=N)N)NC(=O)[C@H](CCC(=O)O)NC(=O)CNC(=O)[C@H](CCC(=O)O)NC(=O)[C@H](CC(C)C)NC(C)=O)C(C)C)[C@@H](C)CC)[C@@H](C)O (Ac-LEGEREKVRAK[hLys](Ac)I[β2hAla(2S)][β2hAla(2S)]EGM[Nle]K[hLys](Ac)STWS[β2hAla(2S)]RKK[hLys](Ac)-X5) | – | 0.4 | 88 | – | – | 3.96 | 24.5 | 85 | 61 | – | – | –
